Columns and labels:
[1] = Rat pharmacokinetics: IV infusion 1 mg/kg, then PO 5 mg/kg; blood and urine by LC-MS/MS; assay type: in vivo, Male Wistar Han rats; conditions: for % F: oral bioavailability, ratio of dose-normalised AUC PO (5 mg/kg) and IV infusion (1 mg/kg); for Ue % po: percentage of oral dose (5 mg/kg) eliminated unchanged in urine
Excerpt: General Assays for Obtaining AUC Oral h*μm, % F, and Ue % PO Values
Male Wistar Han rats were purchased from Vital River Laboratory Animal Technology Co. Ltd (Beijing, China). The animals were approx. 6-8 weeks old with body weights of 200-300 g on the dosing date. The animals were housed in a 12-hour light/12-hour dark cycle environment and had free access to food and water. All animals were fed prior to dosing. Studies were approved by the Pharmaron Institutional Animal Care and Use Committee (IACUC).
Test article was administered as an intravenous infusion for 1 hour (1 mg/kg) at 5 mL/kg/h. After 48 h, animals received a single oral dose (5 mg/kg, free form) at a dose volume of 10 mL/kg, respectively. Blood samples were collected at various time points after IV infusion and PO administrations. Urine samples were collected at various time points after IV infusion and PO administrations.
Test article was dissolved in DMSO with vortexing and sonification to obtain a stock solution. An aliquot of the stock solution was mixed with 10% HP-β-CD in saline with vortexing to obtain a solution with concentration at 0.2 mg/mL of test article.
Test article was added into 1% Methyl Cellulose with vortexing and sonication to obtain a homogeneous suspension with concentration at 0.5 mg/mL of test article.
For IV infusion (1 mg/kg) administration, blood samples were collected from each animal at 0, 0.25, 0.5, 0.75, 1, 1.08, 1.25, 1.5, 1.75, 2, 3, 5, 8, 12, 24 hour post-dose.
For PO (5 mg/kg) administration, blood samples were collected from each animal at 0, 0.25, 0.5, 1, 1.5, 2, 3, 4, 6, 8, 12, 24 hour post-dose.
Blood samples (50 μL) were collected from each animal via jugular vein. These blood samples were placed into tubes containing K2EDTA. Whole blood was mixed with same volume of water and inverted several times. The blood samples were stored at −75±15° C. until analysis.
For IV infusion (1 mg/kg) administration, urine samples were collected from each animal at 0-4, 4-8, 8-12, 12-24 hour post-dose.
For PO (5 mg/kg) administration, urine samples were collected from each animal at 0-4, 4-8, 8-12, 12-24 hour post-dose.
Urine samples were collected continuously into containers maintained over dry ice at the intervals outlined below and stored at −80° C. prior to analysis.
55 μL of standards, 55 μL of QC samples or 55 μL of unknown samples (50 μL of blood or urine with 5 μL 50% acetonitrile) were mixed to 200 μL of acetonitrile containing IS (dexamethasone) to precipitate proteins. Then the samples were vortexed for 30 sec. After centrifugation at 4° C., 4700 rpm for 30 min, and 5 μL of the supernatant was injected into the LC-MS/MS system for quantitative analysis.
Test article blood and urine concentrations for each animal following IV infusion at 1 mg/kg and PO at 5 mg/kg were used to calculate pharmacokinetic parameters by employing a non-compartmental analysis (Phoenix™ WinNonlin® 7.0). The linear trapezoidal algorithm was used for AUC calculation.

[2] = target: T1, FimH (Escherichia coli, UniProt Q1R2J4); assay type: cell-based; conditions: concentration reducing bacterial agglutination of guinea pig red blood cells by greater than 90%; UTI89 bacteria;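 further: concentration in nM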
T1 construct: endogenous in cells; host or cells: E. coli UTI89 whole bacteria, agglutinating guinea pig red blood cells
Procedure, shortened: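 Hemagglutination inhibition using uropathogenic E. coli UTI89 and guinea pig red blood cells.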

Question: Which “% F” value [1] does the source give for `CCc1c(F)cc(-c2ccc([C@@H](O)[C@H]3O[C@H](CO)[C@@H](O)[C@H](O)[C@@H]3O)c(C)c2)cc1F` [Example 94] here?
Answer: “++” (10 <= x <= 30%)

Question: And the Ue % po [1]?
Answer: “+” (<0.5%)

Question: What about the “HAI titer EC > 90” value [2] of the same molecule?
Answer: “++++” (<50 “++++”)

Question: Which “% F” value [1] does the source give for `Cc1cc(-c2cc(F)c(OC(F)(F)F)c(F)c2)ccc1[C@@H](O)[C@H]1O[C@H](CO)[C@@H](O)[C@H](O)[C@@H]1O` [Example 101] here?
Answer: “++” (10 <= x <= 30%)

Question: What about the Ue % po [1] of the same molecule?
Answer: “+” (<0.5%)

Question: And the “HAI titer EC > 90” value [2]?
Answer: “++++” (<50 “++++”)

From US12552824B2, “C-mannoside compounds useful for the treatment of urinary tract infections” (GLAXOSMITHKLINE INTELLECTUAL PROPERTY DEVELOPMENT LIMITED, priority 2018, dated 2026)
